Test system: spontaneous SWDs of Long-Evans rats
Assay: In vivo anti-epileptic therapy, spontaneous spike-wave discharges (SWDs)
Design: species or system rat
Settings: before and after application, ESM 28 mg/Kg i.p., ESM-SAIO and ESM-device 40 mg/Kg (FIG. 12)
Description: Adult male Long-Evans and Wistar rats were used in this study. All rats were kept in a sound-attenuated room under a 12:12 hr light-dark cycle (07:00-19:00 lights on) with food and water provided ad libitum. The experimental procedures were reviewed and approved by the Institutional Animal Care and Use Committee. Briefly, the recording electrodes were implanted under pentobarbital anesthesia (60 mg/kg, i.p.). Subsequently, the rat was placed in a standard stereotaxic apparatus. In total, six stainless steel screws were driven bilaterally into the skull overlying the frontal (A +2.0, L 2.0 with reference to the bregma) and occipital (A −6.0, L 2.0) regions of the cortex to record cortical field potentials. A ground electrode was implanted 2 mm caudal to lambda. Dental cement was applied to fasten the connection socket to the surface of the skull. Following suturing to complete the surgery, animals were given an antibiotic (chlortetracycline) and housed individually in cages for recovery. […] To confirm the cortical focus theory of SWDs, a pharmacological epileptic rat model, low-dose pentylenetetrazol (PTZ) (20 mg/kg, i.p.) in Wistar rats, was also used. […] In this experiment, 1-hour spontaneous brain activity before the treatment (baseline) and another 1-hour spontaneous brain activity 30 minutes after the treatment were recorded, respectively. […]

Structure (SMILES): CCC1(C)CC(=O)NC1=O (centres unmarked) [ESM, ethosuximide]
- SWD number: significantly reduced
- total SWD duration: significantly reduced

Source: patent US20110014296A1, “Drug Delivery Nanodevice, its Preparation Method and Uses Thereof” (NATIONAL CHIAO TUNG UNIVERSITY, priority 2009, published 2011)
